According to patent US20240182910A1, “DRUG-REGULATABLE TRANSCRIPTION FACTORS” (Senti Biosciences, Inc., priority 2021, published 2024):

Tests used:
AlcR = AlcR (Emericella nidulans, UniProt P21228); parameters: key: A, activation; DA, deactivation; DR, derepression; settings: AIR; PAIR (OalcA-PhCMVmin); cited from earlier work
[1] = target: T1, mifepristone-inducible transcription factor (Homo sapiens, UniProt P06401, V660L); assay: Transduction assay: mCherry reporter expression, mifepristone-inducible transcription factor; assay type: cell-based; settings: U87-MG reporter cells, cell group E; 0, 1, 100, 1000 or 10000 nM mifepristone; FIG. 4
T1 construct: expressed in transfected cells; host or cells: U87-MG reporter cells, lentiviral transduction
T1 sequence (P06401 with tags, fused parts or gaps V660L): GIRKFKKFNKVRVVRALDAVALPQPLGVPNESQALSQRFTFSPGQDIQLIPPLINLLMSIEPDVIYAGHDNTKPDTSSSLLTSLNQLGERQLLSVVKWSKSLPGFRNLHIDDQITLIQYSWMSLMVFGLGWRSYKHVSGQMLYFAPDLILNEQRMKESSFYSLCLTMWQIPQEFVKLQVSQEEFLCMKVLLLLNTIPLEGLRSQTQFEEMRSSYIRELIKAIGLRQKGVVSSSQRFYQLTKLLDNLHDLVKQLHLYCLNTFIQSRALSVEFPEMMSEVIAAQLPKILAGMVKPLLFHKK
Experimental: On day 1, reporter cells were transduced with lentivirus encoding the mifepristone-inducible transcription factor construct.
To assay for mifepristone-regulated transcription modulation, cell group E was thawed and four days later, the cells were split into a 48-well plate and treated with 0 nM, 1 nM, 100 nM, 1000 nM, or 10000 nM mifepristone. Six days after the cells were thawed, cells were trypsinized and then resuspended in FACS buffer plus Sytox Red (fluoresces in APC channel) viability dye. Cell mCherry geometric mean fluorescent intensity (gMFI) was measured at each concentration and normalized to no drug as shown in FIG. 4.

Sequence of AlcR (P21228 whole entry): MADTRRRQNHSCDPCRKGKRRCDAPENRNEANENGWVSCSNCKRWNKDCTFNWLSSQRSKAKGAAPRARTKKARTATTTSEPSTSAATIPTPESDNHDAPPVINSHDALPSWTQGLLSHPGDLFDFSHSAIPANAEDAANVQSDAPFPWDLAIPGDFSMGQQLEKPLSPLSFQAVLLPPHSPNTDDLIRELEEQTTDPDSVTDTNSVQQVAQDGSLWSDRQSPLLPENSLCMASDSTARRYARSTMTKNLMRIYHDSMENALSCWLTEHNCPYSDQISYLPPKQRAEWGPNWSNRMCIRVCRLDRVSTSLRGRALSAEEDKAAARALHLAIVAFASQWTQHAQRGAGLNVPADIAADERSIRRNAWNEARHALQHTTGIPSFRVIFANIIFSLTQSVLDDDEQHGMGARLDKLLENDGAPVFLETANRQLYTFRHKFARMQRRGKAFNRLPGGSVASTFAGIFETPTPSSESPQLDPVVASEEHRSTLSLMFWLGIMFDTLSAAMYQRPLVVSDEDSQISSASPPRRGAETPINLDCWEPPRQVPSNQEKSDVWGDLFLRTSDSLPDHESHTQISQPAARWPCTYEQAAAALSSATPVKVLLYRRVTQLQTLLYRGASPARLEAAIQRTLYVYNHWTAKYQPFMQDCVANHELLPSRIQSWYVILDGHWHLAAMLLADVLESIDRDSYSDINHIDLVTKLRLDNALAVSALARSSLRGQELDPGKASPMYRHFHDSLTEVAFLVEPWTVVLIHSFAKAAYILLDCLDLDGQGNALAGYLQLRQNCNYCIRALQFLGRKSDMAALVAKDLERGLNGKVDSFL

Row | Compound | Response to inducer: T (transgene transcription) (AlcR) | mCherry expression (mCherry gMFI normalized to no drug) [1]
1 | CC=O [Acetaldehyde] | A | 
2 | CC#C[C@]1(O)CC[C@H]2[C@@H]3CCC4=CC(=O)CCC4=C3[C@@H](c3ccc(N(C)C)cc3)C[C@@]21C [mifepristone] |  | induced mCherry expression in the presence of drug in a concentration-dependent manner
